Results: ChEMBL document CHEMBL1130580, “Synthesis and biological activity of new bradykinin pseudopeptide B1 receptor agonists containing alkylic spacers” (Bioorg Med Chem Lett, 1997)
Numbered stars: 1 amine (or outer) side, 2 acyl side, 3 side chain; on linkers, the order of the positions; unused ones are H or OH. Square brackets hold non-standard residues; d marks the D form. Peptide text beside a SMILES is read from it. ξ: configuration not given here. Oic(3aξ,7aξ) = O=C(O)[C@@H]1CC2CCCCC2N1; X2 = O=C([C@H]1c2ccccc2CCN1[*:1])[*:2]; X1 = O=C(CCCCCCCCCCCCN[*:1])[*:2]

Key:
B1 bradykinin receptor = target: T1, B1 bradykinin receptor (Rattus norvegicus, UniProt P97583); assay: Compound was evaluated for agonist activity against B1 receptor in rat ileum longitudinal smooth muscle; type: functional, tissue-based
T1 sequence (P97583 whole entry): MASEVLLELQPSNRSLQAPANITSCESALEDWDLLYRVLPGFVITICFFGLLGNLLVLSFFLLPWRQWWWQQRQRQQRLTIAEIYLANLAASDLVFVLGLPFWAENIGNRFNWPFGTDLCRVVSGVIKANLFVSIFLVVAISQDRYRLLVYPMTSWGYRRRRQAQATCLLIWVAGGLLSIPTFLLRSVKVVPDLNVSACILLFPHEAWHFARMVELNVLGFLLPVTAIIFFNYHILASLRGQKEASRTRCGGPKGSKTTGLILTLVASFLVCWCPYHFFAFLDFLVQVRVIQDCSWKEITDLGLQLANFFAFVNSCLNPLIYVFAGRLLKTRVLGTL

B2 bradykinin receptor [1] = target: T2, B2 bradykinin receptor (Cavia porcellus, UniProt O70526); assay: Compound was evaluated for inhibitory activity against [3H]BK in the classical guinea pig ileum B2 binding assay; type: tissue-based
T2 sequence (O70526 whole entry): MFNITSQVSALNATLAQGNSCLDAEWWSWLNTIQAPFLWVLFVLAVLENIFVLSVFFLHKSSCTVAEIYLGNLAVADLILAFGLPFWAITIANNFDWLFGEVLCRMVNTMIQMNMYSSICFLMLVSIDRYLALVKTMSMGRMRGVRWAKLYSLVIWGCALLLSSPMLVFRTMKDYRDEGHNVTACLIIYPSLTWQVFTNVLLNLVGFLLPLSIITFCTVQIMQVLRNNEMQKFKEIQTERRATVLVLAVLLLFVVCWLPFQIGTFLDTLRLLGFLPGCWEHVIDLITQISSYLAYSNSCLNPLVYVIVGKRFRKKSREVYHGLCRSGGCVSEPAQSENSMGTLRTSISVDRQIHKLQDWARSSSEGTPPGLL

B2 bradykinin receptor [2] = target: T2, B2 bradykinin receptor; assay: Functional antagonism against BK-induced contractions in the classical guinea pig ileum B2 binding assay; type: tissue-based; settings: read-out: pA2 (converted)
B2 bradykinin receptor [3] = target: T3, B2 bradykinin receptor (Homo sapiens, UniProt P30411); assay: Compound was evaluated for inhibitory activity against [3H]BK in membrane preparations from a stable cell line that expresses the human B2 receptor
T3 sequence (P30411 whole entry): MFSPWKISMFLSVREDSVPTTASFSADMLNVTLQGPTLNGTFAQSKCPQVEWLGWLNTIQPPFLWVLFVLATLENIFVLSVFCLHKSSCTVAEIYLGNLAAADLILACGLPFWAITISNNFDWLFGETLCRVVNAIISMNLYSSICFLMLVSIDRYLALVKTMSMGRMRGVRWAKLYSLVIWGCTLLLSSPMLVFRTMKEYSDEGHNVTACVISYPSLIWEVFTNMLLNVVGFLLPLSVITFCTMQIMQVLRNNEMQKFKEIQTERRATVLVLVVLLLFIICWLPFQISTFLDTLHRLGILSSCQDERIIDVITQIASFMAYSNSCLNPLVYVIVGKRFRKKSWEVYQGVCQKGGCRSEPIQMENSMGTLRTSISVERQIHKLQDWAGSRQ

NCCCC[C@H](N)C(=O)N[C@@H](CCCN=C(N)N)C(=O)N1CCC[C@H]1C(=O)N1CCC[C@H]1C(=O)NCC(=O)N[C@@H](Cc1ccccc1)C(=O)N[C@@H](CO)C(=O)N1CCC[C@H]1C(=O)N[C@@H](Cc1ccccc1)C(=O)O
EC50 (B1 bradykinin receptor): 85 nM

N=C(N)NCCC[C@H](NC(=O)[C@H](N)CCCN=C(N)N)C(=O)NCCCCCCCCCCCC(=O)N[C@@H](CO)C(=O)N1CCc2ccccc2[C@@H]1C(=O)N1C2CCCCC2C[C@H]1C(=O)N[C@@H](CCCN=C(N)N)C(=O)O (stereo not given in full)
Ki (B2 bradykinin receptor [1]): 360 nM
Kb (B2 bradykinin receptor [2]): 3160 nM

NCCCC[C@H](N)C(=O)N[C@@H](CCCN=C(N)N)C(=O)NCCCCCCCCCCCCC(=O)N[C@@H](CO)C(=O)N1CCC[C@H]1C(=O)N[C@@H](Cc1ccccc1)C(=O)O (H-KR[X1]SPF-OH)
EC50 (B1 bradykinin receptor): 980 nM

NC(N)=NCCC[C@H](NC(=O)[C@@H]1CC2CCCCC2N1C(=O)[C@H]1c2ccccc2CCN1C(=O)[C@H](CO)NC(=O)CCCCCCCCCCCCNC(=O)[C@H](CCCN=C(N)N)NC(=O)[C@@H](N)CCCN=C(N)N)C(=O)O (stereo not given in full) (H-RR[X1]S[X2][Oic(3aξ,7aξ)]R-OH)
Ki (B2 bradykinin receptor [3]): 44 nM
